Test results reported in patent US9643973B1, “Crystalline form of diclosulam, a process for its preparation and use of the same” (Rotam Agrochem International Company Limited, priority 2016, dated 2017).
Where two headings read alike, the source gives them in different places.

How the values were obtained:
[1] = Viscosity (stated in words, no method given); type: physicochemical
[2] = type: physicochemical; settings: for Concentration measured by HPLC after treatment: pH 7 buffer, 20° C.
Protocol: A stock pH 7 buffer solution was prepared by adding aqueous sodium hydroxide solution (0.1 M, 145 mL) to aqueous potassium dihydrogen phosphate solution (0.1 M, 250 mL), and then adding sufficient distilled water to adjust the final volume to 500 mL. At least 1 time and up to about 5 times the amount of diclosulam needed for saturation was added to a mixing vessel containing stock buffer solution at the test temperature (e.g., 20° C.). The mixture was magnetically stirred in the dark while being maintained at the test temperature and the samples were intermittently and periodically removed for analysis. The samples were centrifuged using a high speed, temperature-controlled centrifuge at the test temperature for about 20 minutes at ≧12000 G to remove suspended particles. An aliquot of each supernatant was taken for analysis. The concentration of diclosulam in the supernatant was determined by a high pressure liquid chromatography (HPLC) with a reversed phase chromatography column and UV detection. The method should include development of best-fit calibration curves based on at least three standards using linear regression analysis Samples were successively withdrawn from the mixing vessel and analyzed until three successive samples show little or no variation in concentration. The test is preferably replicated to ensure accuracy.

[3] = OD formulation, original concentration 40%
[4] = SG formulation, original concentration 25%
[5] = WG formulation, original concentration 25%

SMILES	Viscosity (in words) ([1]; listed as diclosulam in amorphous state)	Concentration measured by HPLC after treatment [2, 3] [%]	Concentration measured by HPLC after treatment [2, 4] [%]	Concentration measured by HPLC after treatment [2, 5] [%]	Viscosity (in words) ([1]; listed as crystalline modification I of diclosulam)	Solubility (in words) [2]
CCOc1nc(F)cc2nc(S(=O)(=O)Nc3c(Cl)cccc3Cl)nn12 [Amorphous diclosulam, 2′,6′-dichloro-5-ethoxy-7-fluoro[1,2,4]triazolo[1,5-c]pyrimidine-2-sulfonanilide, reference compound]	highly viscous	14	15	12		
CCOc1nc(F)cc2nc(S(=O)(=O)Nc3c(Cl)cccc3Cl)nn12 [Diclosulam, crystalline modification I, 2′,6′-dichloro-5-ethoxy-7-fluoro[1,2,4]triazolo[1,5-c]pyrimidine-2-sulfonanilide]		35	24.9	23	significant decrease	significant increase
